# Tests used:
# Assay in all cases: relative viability (nuclei count vs DMSO), 5 days (fraction); higher = more cells survive
# 201T = system: 201T
# Method in brief: (§1)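 Lung cancer cell lines, seeded in 1536-well plates, were treated the following day by pin tool with a single drug or with five library-drug doses (not always all listed) in √10 steps on top of a fixed anchor-drug dose. Cells were fixed and nuclei stained in one step after 5 days, and nuclei were counted. Relative viability is the nuclei count for treated wells divided by that for vehicle wells, reported as medians of duplicate plates.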
# COR-L23 = system: COR-L23
# Method in brief: as §1
# NCI-H1793 = system: NCI-H1793
# Method in brief: as §1
# NCI-H2405 = system: NCI-H2405
# Method in brief: as §1
# NCI-H2023 = system: NCI-H2023
# Method in brief: as §1
# NCI-H1563 = system: NCI-H1563
# Method in brief: as §1
# H3255 = system: H3255
# Method in brief: as §1
# NCI-H1650 = system: NCI-H1650
# Method in brief: as §1
# LOU-NH91 = system: LOU-NH91
# Method in brief: as §1
# NCI-H1734 = system: NCI-H1734
# Method in brief: as §1
# PC-14 = system: PC-14
# Method in brief: as §1
# SW 900 = system: SW 900
# Method in brief: as §1
# NCI-H2347 = system: NCI-H2347
# Method in brief: as §1
# NCI-H520 = system: NCI-H520
# Method in brief: as §1
# NCI-H2170 = system: NCI-H2170
# Method in brief: as §1
# NCI-H3122 = system: NCI-H3122
# Method in brief: as §1
# EPLC-272H = system: EPLC-272H
# Method in brief: as §1
# NCI-H441 = system: NCI-H441
# Method in brief: as §1
# NCI-H322M = system: NCI-H322M
# Method in brief: as §1
# HCC-15 = system: HCC-15
# Method in brief: as §1
# UMC-11 = system: UMC-11
# Method in brief: as §1
# NCI-H647 = system: NCI-H647
# Method in brief: as §1
smiles,measurement,setting,value
COc1nc(C)cnc1NS(=O)(=O)c1cccnc1-c1ccc(-c2nnco2)cc1 [Zibotentan] + Cc1nc(Nc2ncc(C(=O)Nc3c(C)cccc3Cl)s2)cc(N2CCN(CCO)CC2)n1 [Dasatinib] (partner 0.075 µM),relative viability,201T; first compound 0.08 µM,0.676
same,relative viability,201T; first compound 0.253 µM,0.569
same,relative viability,201T; first compound 0.8 µM,0.576
same,relative viability,201T; first compound 2.53 µM,0.624
same,relative viability,COR-L23; first compound 0.08 µM,0.502
same,relative viability,COR-L23; first compound 0.253 µM,0.485
same,relative viability,COR-L23; first compound 0.8 µM,0.488
same,relative viability,COR-L23; first compound 2.53 µM,0.5
same,relative viability,NCI-H1793; first compound 0.08 µM,0.345
same,relative viability,NCI-H1793; first compound 0.253 µM,0.363
same,relative viability,NCI-H1793; first compound 0.8 µM,0.406
same,relative viability,NCI-H1793; first compound 2.53 µM,0.379
same,relative viability,NCI-H2405; first compound 0.08 µM,0.238
same,relative viability,NCI-H2405; first compound 0.253 µM,0.193
same,relative viability,NCI-H2405; first compound 0.8 µM,0.218
same,relative viability,NCI-H2405; first compound 2.53 µM,0.212
same,relative viability,NCI-H2023; first compound 0.08 µM,0.568
same,relative viability,NCI-H2023; first compound 0.253 µM,0.339
same,relative viability,NCI-H2023; first compound 0.8 µM,0.476
same,relative viability,NCI-H2023; first compound 2.53 µM,0.64
same,relative viability,NCI-H1563; first compound 0.08 µM,0.493
same,relative viability,NCI-H1563; first compound 0.253 µM,0.435
same,relative viability,NCI-H1563; first compound 0.8 µM,0.476
same,relative viability,NCI-H1563; first compound 2.53 µM,0.397
same,relative viability,H3255; first compound 0.08 µM,0.406
same,relative viability,H3255; first compound 0.253 µM,0.311
same,relative viability,H3255; first compound 0.8 µM,0.632
same,relative viability,H3255; first compound 2.53 µM,0.325
same,relative viability,NCI-H1650; first compound 0.08 µM,0.35
same,relative viability,NCI-H1650; first compound 0.8 µM,0.27
same,relative viability,NCI-H1650; first compound 2.53 µM,0.4
same,relative viability,LOU-NH91; first compound 0.08 µM,0.577
same,relative viability,LOU-NH91; first compound 0.253 µM,0.485
same,relative viability,LOU-NH91; first compound 0.8 µM,0.539
same,relative viability,LOU-NH91; first compound 2.53 µM,0.577
same,relative viability,NCI-H1734; first compound 0.08 µM,0.484
same,relative viability,NCI-H1734; first compound 0.253 µM,0.42
same,relative viability,NCI-H1734; first compound 0.8 µM,0.487
same,relative viability,NCI-H1734; first compound 2.53 µM,0.564
same,relative viability,PC-14; first compound 0.08 µM,0.26
same,relative viability,PC-14; first compound 0.253 µM,0.172
same,relative viability,PC-14; first compound 0.8 µM,0.243
same,relative viability,PC-14; first compound 2.53 µM,0.277
same,relative viability,SW 900; first compound 0.08 µM,0.633
same,relative viability,SW 900; first compound 0.253 µM,0.59
same,relative viability,SW 900; first compound 0.8 µM,0.562
same,relative viability,SW 900; first compound 2.53 µM,0.911
same,relative viability,NCI-H2347; first compound 0.253 µM,0.294
same,relative viability,NCI-H2347; first compound 0.8 µM,0.298
same,relative viability,NCI-H2347; first compound 2.53 µM,0.331
same,relative viability,NCI-H520; first compound 0.08 µM,0.252
same,relative viability,NCI-H520; first compound 0.253 µM,0.222
same,relative viability,NCI-H520; first compound 0.8 µM,0.224
same,relative viability,NCI-H520; first compound 2.53 µM,0.237
same,relative viability,NCI-H2170; first compound 0.08 µM,0.59
same,relative viability,NCI-H2170; first compound 0.253 µM,0.612
same,relative viability,NCI-H2170; first compound 0.8 µM,0.52
same,relative viability,NCI-H2170; first compound 2.53 µM,0.469
same,relative viability,NCI-H3122; first compound 0.08 µM,0.807
same,relative viability,NCI-H3122; first compound 0.253 µM,0.817
same,relative viability,NCI-H3122; first compound 0.8 µM,0.701
same,relative viability,NCI-H3122; first compound 2.53 µM,0.751
same,relative viability,EPLC-272H; first compound 0.08 µM,0.375
same,relative viability,EPLC-272H; first compound 0.253 µM,0.287
same,relative viability,EPLC-272H; first compound 0.8 µM,0.331
same,relative viability,EPLC-272H; first compound 2.53 µM,0.33
same,relative viability,NCI-H441; first compound 0.08 µM,0.715
same,relative viability,NCI-H441; first compound 0.253 µM,0.476
same,relative viability,NCI-H441; first compound 0.8 µM,0.679
same,relative viability,NCI-H441; first compound 2.53 µM,0.677
same,relative viability,NCI-H322M; first compound 0.08 µM,0.235
same,relative viability,NCI-H322M; first compound 0.253 µM,0.245
same,relative viability,NCI-H322M; first compound 0.8 µM,0.27
same,relative viability,NCI-H322M; first compound 2.53 µM,0.269
same,relative viability,HCC-15; first compound 0.08 µM,0.601
same,relative viability,HCC-15; first compound 0.8 µM,0.512
same,relative viability,HCC-15; first compound 2.53 µM,0.684
same,relative viability,UMC-11; first compound 0.08 µM,0.394
same,relative viability,UMC-11; first compound 0.253 µM,0.436
same,relative viability,UMC-11; first compound 0.8 µM,0.475
same,relative viability,UMC-11; first compound 2.53 µM,0.469
same,relative viability,NCI-H647; first compound 0.08 µM,0.145
same,relative viability,NCI-H647; first compound 0.253 µM,0.185
same,relative viability,NCI-H647; first compound 0.8 µM,0.215
same,relative viability,NCI-H647; first compound 2.53 µM,0.195

# Source: the supplement of paper PMC10307832
